Tests used:
Format in all cases: in vivo, BALB/c mice
[1] = system: draining lymph node cells; assay: Immunization potential: lymph node cell proliferation ([3H]thymidine intake) after subcutaneous footpad injection; settings: s.c. footpads, nanoparticles corresponding to 20 μg peptide, FIG. 1; for cell proliferation response (thymidine intake) to the injected T cell recognizable epitope peptide: day 11 lymph node cells stimulated with P1 or P2 20 μg/ml; for cell proliferation response (thymidine intake) to SBP: day 11 lymph node cells stimulated with SBP 10 μg/ml
Experimental: (§1) Subcutaneously injected into the footpads of BALB/c mice (6-week-old male) was 100 μl (50 μl for each footpad) of a suspension of biodegradable nanoparticles having immobilized thereon Cryj1 or Cryj2 T cell recognizable epitope peptide (P1 or P2) (the amount of nanoparticles corresponding to 20 μg of the peptide) or nanoparticles having no peptide immobilized thereon. On day 11, a draining lymph node was removed to collect lymph node cells, which were then suspended in a mixture of RPM 11640 medium and 10% fetal calf serum (FCS). Such cells from two mice were combined together for use in each group. The cells were placed onto a 96-well incubation plate in an amount of 5×10^5 in each well. Further placed into each well as an antigen stimulus was P1 or P2 to a final concentration of 20 μg/ml or a cedar pollen roughly purified antigen (Sugi Basic Protein, SBP, Asahi Food and Health Care Co., Ltd.) in an amount of 10 μg/ml. Half of the mixture to be incubated was replaced by a fresh mixture to be incubated and containing [^3H] tritium-thymidine (0.5 μCi) 48 hours after the start of incubation. The cells were then collected onto a glass filter 16 hours thereafter by a cell harvester, and the [^3H] tritium intake (thymidine intake) was measured by a liquid scintillation counter for the evaluation of cell proliferation. The SBP mentioned above is an allergen containing both Cryj1 and Cryj2.

interleukin-5 = assay: Ocular (conjunctival) administration: interleukin-5 production by sandwich ELISA; settings: 5 μg peptide eight times, supernatant 64 hours, SBP 10 μg/ml, versus ocularly untreated mice, FIG. 3
Experimental: (§2) Mucosal administration of antigens is thought promising in immunotherapy, and the conjunctiva is considered to be one of the routes of administration (J. Immunol. 2000, 164: 4543-4550). Biodegradable nanoparticles having immobilized thereon T cell recognizable epitope peptide were ocularly-instilled to investigate the influence on the response to the subsequent antigen sensitization. A saline solution of Cryj2 T cell recognizable epitope peptide (P2) (5 μg of the peptide) or a suspension of P2 immobilized nanoparticles (corresponding to 5 μg of the peptide) administered dropwise, in an amount of 10 μl, to the conjunctivas of the eyes of BALB/c mice (7-week-old male) eight times (on days 1-4 and days 6-9). On day 16, a suspension of 5 μg of cedar pollen roughly purified antigen SBP in Freund's incomplete adjuvant was injected for antigen sensitization into the right footpads to give rise to an immune response. […] The proliferation of cells was measured by the same method as described in Example 2. For the measurement of cytokine production, the supernatant was collected 64 hours after the start of incubation to quantitatively determine interleukin-5 and interferon-γ by sandwich ELISA using Bio-Plex cytokine assay system (product of Bio-Rad).

[2] = system: draining lymph node cells; assay: Ocular (conjunctival) administration, SBP sensitization: cell proliferation (thymidine intake) on SBP stimulation; settings: 5 μg peptide eight times, SBP sensitization day 16, SBP 10 μg/ml, versus ocularly untreated mice, FIG. 3
Experimental: as §1, with “Further placed into each well as an antigen stimulus was P1 or P2 to a final concentration of 20 μg/ml or a cedar pollen roughly purified antigen (Sugi Basic Protein, SBP, Asahi Food and Health Care Co., Ltd.) in an amount of 10 μg/ml. Half of the mixture to be incubated was replaced by a fresh mixture to be incubated and containing [^3H] tritium-thymidine (0.5 μCi) 48 hours after the start of incubation.” left out, “The SBP mentioned above is an allergen containing both Cryj1 and Cryj2.” left out
Mucosal administration of antigens is thought promising in immunotherapy, and the conjunctiva is considered to be one of the routes of administration (J. Immunol. 2000, 164: 4543-4550). […] The proliferation of cells was measured by the same method as described in Example 2. […]

interferon-γ = assay: Ocular (conjunctival) administration: interferon-γ production by sandwich ELISA; settings: 5 μg peptide eight times, supernatant 64 hours, SBP 10 μg/ml, versus ocularly untreated mice, FIG. 3
Experimental: as §2

KQVTIRIGCKTSSS [P1, in b77 the label stands for the P1-immobilized nanoparticles injected]
cell proliferation response (thymidine intake) to the injected T cell recognizable epitope peptide [1]: specific cell proliferation response was observed
cell proliferation response (thymidine intake) to SBP [1]: observed was a response to the SBP

RAEVSYVHVNGAKF [P2 alone]
production of interleukin-5 (Th2 cytokine) (interleukin-5): reduced to nearly the same extent
cell proliferation response (thymidine intake) to the injected T cell recognizable epitope peptide [1]: specific cell proliferation response was observed
cell proliferation response (thymidine intake) to SBP [1]: observed was a response to the SBP
cell proliferation response (thymidine intake) to the stimulation with the antigen [2]: lower
production of interferon-γ (Th1 cytokine) (interferon-γ): lower

From patent US20090156480A1, “Biodegradable nanoparticle having t-cell recognizable epitope peptide immobilized thereon or encapsulated therein” (priority 2005, published 2009)
